Data on 20 compounds can be found in US20070249590A1, “Substituted indolo[2,3-a]pyrrolo[3,4-c]carbazole compounds useful in treating kinase disorders” (priority 2005, published 2007).

The target of the test is T1, JAK3 (JH1 and JH2 domain) (Homo sapiens, UniProt P52333).
T1 sequence (P52333 521-1111 limits assumed): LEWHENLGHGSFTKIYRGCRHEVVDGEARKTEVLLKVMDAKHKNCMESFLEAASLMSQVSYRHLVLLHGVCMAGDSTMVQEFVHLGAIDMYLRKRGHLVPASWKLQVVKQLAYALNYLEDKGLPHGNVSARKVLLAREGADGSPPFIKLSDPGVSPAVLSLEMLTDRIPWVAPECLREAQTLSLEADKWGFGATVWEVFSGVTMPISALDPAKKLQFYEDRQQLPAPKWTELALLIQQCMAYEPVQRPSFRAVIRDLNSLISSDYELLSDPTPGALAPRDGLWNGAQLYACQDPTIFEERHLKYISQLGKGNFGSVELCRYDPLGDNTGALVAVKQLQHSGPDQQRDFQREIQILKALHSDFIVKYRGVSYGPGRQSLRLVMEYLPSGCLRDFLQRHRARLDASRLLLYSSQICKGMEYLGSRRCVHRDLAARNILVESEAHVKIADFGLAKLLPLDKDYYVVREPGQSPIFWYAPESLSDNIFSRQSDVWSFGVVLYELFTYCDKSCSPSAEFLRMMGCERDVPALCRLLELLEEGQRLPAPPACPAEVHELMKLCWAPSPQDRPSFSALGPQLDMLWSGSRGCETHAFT
As to the kind of experiment: JAK3 Kinase Assay (ELISA of peptide substrate phosphorylation). The following applies: purified JAK3 enzyme, 10 μM ATP, biotinylated peptide substrate, 1 hour at room temperature. The test is classed as biochemical. As for the experimental part: JAK3 enzyme activity was assayed relative to enzyme phosphorylation using the method described herein.
Sf21 cells derived from the ovarian tissue of the fall armyworm Spodotera frugiperda were obtained from Pharmingen (San Diego, Calif.) and maintained at a temperature of about 26-28° C. in 1 l Bellco spinner flasks at 60-90 rpm. Cell viability was maintained at 95-100%, as determined by a tryptan blue dye exclusion test.
Sf21 cells were infected with a baculovirus expression vector for JAK3 (JH1 and JH2 domain). After 48 hours of infection, cells were harvested and lysed in Tris-saline (pH 7.6) containing 2% NP-40 and a combination of protease inhibitors (Aprotinin, Pepstatin A, Pefabloc, E-64, Leupeptin, and Benzamidine) on ice for 45 minutes.
The JAK3 enzyme was purified from the lysate using glutathione sepharose beads and the enzyme activity was assessed in Costar flat bottom EIA/RIA 96 well plates. The plates were coated with Neutravidin (110 μL) (Pierce Neutravidin Biotin-binding Protein 31000; 1 mg/mL 1:100) diluted in PBS for 1 hour at room temperature. The plates were washed with PBS-0.1% Tween (3 times) to remove unbound Neutravidin, then 1% BSA (150 NIL) in PBS was added to each well to block non-specific binding. The plates was incubated for 1 hour at room temperature and stored at −80° C. until use.
JAK3 enzyme solution (48 μL) in 1.25×TK buffer (62.5 mM HEPES pH 7.5, 12.5 mM MgCl2) containing DTT (42 mM) (Sigma, St. Louis, Mo.) was added to each well of a polypropylene 96 well plate.
A test compound (5 μL) diluted in DMSO (48 μL) and biotinylated peptide enzyme substrate (5 μg diluted in TK buffer containing 10 μM ATP) were added to each well using the double dispense feature of a multichannel electronic biohit. Control wells received DMSO vehicle (5 μL). The contents of the wells were mixed for approximately 8 seconds using a multitube vortexer and the reaction mixture was incubated for 1 hour at room temperature.
After incubation, an aliquot of reaction mixture (90 μL) was transferred into a washed Neutravidin coated plate. The plate was incubated for 15 minutes at room temperature and washed 3 times with PBS-T. PY99 anti-phosphotyrosine antibody (100 μL/well) (Santa Cruz #sc-7020HRP diluted 1:6000 in 1× antibody buffer) was added into each well and the plate was incubated for 40 minutes at room temperature. The antibody buffer contained 10% BSA, 100 mM Tris (pH 7.5), 1M NaCl and 1% Tween 20. The plate washed 3 times with PBS-T, then TMB (100 pLXSigma, St. Louis, Mo.) was added to the each well. The plate was incubated for another 40 mins at room temperature in the dark. The reaction was stopped by the addition of 1M H2SO4 (50 μL/well) and the optical density was read at 450/650 nm.
Test compounds were assayed in triplicate at 16 concentrations at half-log dilutions starting at 200 μM. A maximum and minimum signal for the assay was determined on each plate. The percent inhibition of a test compound was calculated according to the formula [formula]
For a series of test concentrations, the IC50 was derived by graphing percent inhibition against the log of the concentrations tested for a given compound. For those compounds without an IC50, the percent inhibition results are shown at a test concentration of 1 μM.
Background: ELISA stands for enzyme-linked immunosorbent assay.
Take `COC1Cn2c3ccccc3c3c4c(c5c6ccccc6n(c5c32)CC1OC)C(=O)NC4=O` (centres unmarked) [Cpd 10, 12,13-(2,3-dimethoxy-butan-1,4-yl)-12,13-dihydro-5,7-dioxo-6H-indolo[2,3-a]pyrrolo[3,4-c]carbazole]: the IC50 came out at 16 nM.
With `O=C1NC(=O)c2c1c1c3ccccc3n3c1c1c2c2ccccc2n1CC(OC(=O)N1CCCNCC1)CC3` (centres unmarked) [Cpd 60, 12,13-{2-[(hexahydro-1H-1,4-diazepin-1-yl)carbonyloxy]-butan-1,4-yl}-12,13-dihydro-5,7-dioxo-6H-indolo[2,3-a]pyrrolo[3,4-c]carbazole] the figure was 156 nM; with `O=C(NC1CCN(Cc2ccccc2)CC1)OC1CCn2c3ccccc3c3c4c(c5c6ccccc6n(c5c32)CC1)C(=O)NC4` (centres unmarked) [Cpd 187, 12,13-{3-[(1-benzyl-piperidin-4-yl)carbamoyloxy]-pentan-1,5-yl}-6,7,12,13-tetrahydro-5-oxo-5H-indolo[2,3-a]pyrrolo[3,4-c]carbazole], 3000 nM; with `CC(C)NC(=O)OC1CCn2c3ccccc3c3c4c(c5c6ccccc6n(c5c32)C1)C(=O)NC4=O` (centres unmarked) [Cpd 39, 12,13-[2-(prop-2-ylcarbamoyloxy)-butan-1,4-yl]-12,13-dihydro-5,7-dioxo-6H-indolo[2,3-a]pyrrolo[3,4-c]carbazole], 31 nM.
Regarding `COC(=O)/C1=C/Cn2c3ccccc3c3c4c(c5c6ccccc6n(c5c32)C1)C(=O)NC4=O` [Cpd 3, 12,13-(2-methoxycarbonyl-but-2-en-1,4-yl)-12,13-dihydro-5,7-dioxo-6H-indolo[2,3-a]pyrrolo[3,4-c]carbazole], the IC50 amounted to 7 nM.
As for `CN(C)CC(=O)OC1Cn2c3ccccc3c3c4c(c5c6ccccc6n(c5c32)CC1OC(=O)CN(C)C)C(=O)NC4` (centres unmarked) [Cpd 15, 12,13-{2,3-bis-[(dimethylaminomethyl)carbonyloxy]-butan-1,4-yl}-6,7,12,13-tetrahydro-5-oxo-5H-indolo[2,3-a]pyrrolo[3,4-c]carbazole], the IC50 was 653 nM.
With `O=C1NC(=O)c2c1c1c3ccccc3n3c1c1c2c2ccccc2n1CC(OC(=O)N1CCCC1CN1CCCC1)CC3` (centres unmarked) [Cpd 52, 12,13-(2-{[2-(pyrrolidin-1-yl-methyl)pyrrolidin-1-yl]carbonyloxy}-butan-1,4-yl)-12,13-dihydro-5,7-dioxo-6H-indolo[2,3-a]pyrrolo[3,4-c]carbazole] the figure was 446 nM; with `CC(C)NC(=O)OCC1(O)Cn2c3ccccc3c3c4c(c5c6ccccc6n(c5c32)C1)C(=O)NC4` (centres unmarked) [Cpd 135, 12,13-[2-hydroxy-2-(isopropyl-carbamoyloxymethyl)-propan-1,3-yl]-6,7,12,13-tetrahydro-5-oxo-5H-indolo[2,3-a]pyrrolo[3,4-c]carbazole], above 200 nM; with `O=C1NCc2c1c1c3ccccc3n3c1c1c2c2ccccc2n1CCC(O)C(O)CC3` (centres unmarked) [Cpd 21, 12,13-(3,4-dihydroxy-hexan-1,6-yl)-6,7,12,13-tetrahydro-5-oxo-5H-indolol[2,3-a]pyrrolo[3,4-c]carbazole], 12 nM.
With `O=C(NCCCN1CCCC1=O)OC1Cn2c3ccccc3c3c4c(c5c6ccccc6n(c5c32)CC1O)C(=O)NC4=O` (centres unmarked) [Cpd 79, 12,13-(2-{[3-(2-oxo-pyrrolidin-1-yl)prop-1-yl]carbamoyloxy}-3-hydroxy-butan-1,4-yl)-12,13-dihydro-5,7-dioxo-6H-indolo[2,3-a]pyrrolo[3,4-c]carbazole] the figure was 48 nM; with `O=C1NCc2c1c1c3ccccc3n3c1c1c2c2ccccc2n1CC(O)C(O)C3` (centres unmarked) [Cpd 14, 12,13-(2,3-dihydroxy-butan-1,4-yl)-6,7,12,13-tetrahydro-5-oxo-5H-indolo[2,3-a]pyrrolo[3,4-c]carbazole], 7 nM.
Regarding `O=C(NC1CCNC1)OC1CCn2c3ccccc3c3c4c(c5c6ccccc6n(c5c32)C1)C(=O)NC4=O` (centres unmarked) [Cpd 72, 12,13-[2-(pyrrolidin-3-yl-carbamoyloxy)-butan-1,4-yl]-12,13-dihydro-5,7-dioxo-6H-indolo[2,3-a]pyrrolo[3,4-c]carbazole], the IC50 amounted to 12 nM.
With `CN1CCN(C(=O)OC2Cn3c4ccccc4c4c5c(c6c7ccccc7n(c6c43)CC2O)C(=O)NC5=O)CC1` (centres unmarked) [Cpd 76, 12,13-{2-[(4-methyl-piperazin-1-yl)carbonyloxy]-3-hydroxy-butan-1,4-yl}-12,13-dihydro-5,7-dioxo-6H-indolo[2,3-a]pyrrolo[3,4-c]carbazole] the figure was 64 nM; with `COCCNC(=O)OCC1Cn2c3ccccc3c3c4c(c5c6ccccc6n(c5c32)C1)C(=O)NC4` (centres unmarked) [Cpd 154, 12,13-{2-[(2-methoxy-ethyl)carbamoyloxymethyl]propan-1,3-yl]-6,7,12,13-tetrahydro-5-oxo-5H-indolo[2,3-a]pyrrolo[3,4-c]carbazole], 84 nM.
Consider `O=C1NC(=O)c2c1c1c3ccccc3n3c1c1c2c2ccccc2n1CC(O)(C(=O)NCc1ccncc1)C(O)C3` (centres unmarked) [Cpd 117, 12,13-{2-[(pyridin-4-ylmethyl)carbamoyl]-2,3-dihydroxy-butan-1,4-yl}-12,13-dihydro-5,7-dioxo-6H-indolo[2,3-a]pyrrolo[3,4-c]carbazole], for which the IC50 stood at 15 nM.
For `O=C(NCc1ccc2c(c1)OCO2)OC1Cn2c3ccccc3c3c4c(c5c6ccccc6n(c5c32)CC1O)C(=O)NC4=O` (centres unmarked) [Cpd 80, 12,13-{2-[(benzo[1,3]dioxol-5-yl-methyl)carbamoyloxy]-3-hydroxy-butan-1,4-yl}-12,13-dihydro-5,7-dioxo-6H-indolo[2,3-a]pyrrolo[3,4-c]carbazole], the IC50 is 100 nM.
Regarding `O=C1NC(=O)c2c1c1c3ccccc3n3c1c1c2c2ccccc2n1CC(OC(=O)N1CCN(CCc2ccccc2)CC1)CC3` (centres unmarked) [Cpd 65, 12,13-(2-{[4-(2-phenyl-ethyl)piperazin-1-yl]carbonyloxy}-butan-1,4-yl)-12,13-dihydro-5,7-dioxo-6H-indolo[2,3-a]pyrrolo[3,4-c]carbazole], the IC50 was 1000 nM.
Consider `COc1ccc(CCNC(=O)OC2CCn3c4ccccc4c4c5c(c6c7ccccc7n(c6c43)CC2)C(=O)NC5)cc1OC` (centres unmarked) [Cpd 183, 12,13-(3-{[2-(3,4-dimethoxy-phenyl)ethyl]carbamoyloxy}-pentan-1,5-yl)-6,7,12,13-tetrahydro-5-oxo-5H-indolo[2,3-a]pyrrolo[3,4-c]carbazole], for which the IC50 is 1270 nM.
With `O=C1NC(=O)c2c1c1c3ccccc3n3c1c1c2c2ccccc2n1CC(OC(=O)N1CCN(Cc2ccccc2)CC1)CC3` (centres unmarked) [Cpd 44, 12,13-{2-[(4-benzyl-piperazin-1-yl)carbonyloxy]-butan-1,4-yl}-12,13-dihydro-5,7-dioxo-6H-indolo[2,3-a]pyrrolo[3,4-c]carbazole], the IC50 was determined as 122 nM.
With `Cc1ccc(CNC(=O)OC2CCn3c4ccccc4c4c5c(c6c7ccccc7n(c6c43)C2)C(=O)NC5=O)o1` (centres unmarked) [Cpd 48, 12,13-(2-{[(5-methyl-furan-2-yl)methyl]carbamoyloxy}-butan-1,4-yl)-12,13-dihydro-5,7-dioxo-6H-indolo[2,3-a]pyrrolo[3,4-c]carbazole] the figure was 11 nM.

As a reminder, the IC50 is the concentration that inhibits the measured activity by half.
